According to ChEMBL document CHEMBL4004838, “Design and synthesis of novel phenyl -1, 4-beta-carboline-hybrid molecules as potential anticancer agents” (Eur J Med Chem, 2017):

Experiments:
Format in all cases: functional
CAKI-1 = test: Growth inhibition of human Caki1 cells assessed as cell growth at 10^-5 M incubated for 48 hrs by sulforhodamine B assay relative to control; conditions: CAKI-1, 48 h, read-out: Activity
OVCAR-8 = test: Growth inhibition of human OVCAR8 cells assessed as cell growth at 10^-5 M incubated for 48 hrs by sulforhodamine B assay relative to control; conditions: OVCAR-8, 48 h, read-out: Activity
MDA-MB-435 = test: Growth inhibition of human MDA-MB-435 cells assessed as cell growth at 10^-5 M incubated for 48 hrs by sulforhodamine B assay relative to control; conditions: MDA-MB-435, 48 h, read-out: Activity
HOP-62 = test: Growth inhibition of human HOP62 cells assessed as cell growth at 10^-5 M incubated for 48 hrs by sulforhodamine B assay relative to control; conditions: HOP-62, 48 h, read-out: Activity
SK-MEL-2 = test: Growth inhibition of human SK-MEL-2 cells assessed as cell growth at 10^-5 M incubated for 48 hrs by sulforhodamine B assay relative to control; conditions: SK-MEL-2, 48 h, read-out: Activity
OVCAR-4 = test: Growth inhibition of human OVCAR4 cells assessed as cell growth at 10^-5 M incubated for 48 hrs by sulforhodamine B assay relative to control; conditions: OVCAR-4, 48 h, read-out: Activity
SN12C = test: Growth inhibition of human SN12C cells assessed as cell growth at 10^-5 M incubated for 48 hrs by sulforhodamine B assay relative to control; conditions: read-out: Activity
SR = test: Growth inhibition of human SR cells assessed as cell growth at 10^-5 M incubated for 48 hrs by sulforhodamine B assay relative to control; conditions: read-out: Activity
UO-31 = test: Growth inhibition of human UO31 cells assessed as cell growth at 10^-5 M incubated for 48 hrs by sulforhodamine B assay relative to control; conditions: UO-31, 48 h, read-out: Activity
NCI-H522 = test: Growth inhibition of human NCI-H522 cells assessed as cell growth at 10^-5 M incubated for 48 hrs by sulforhodamine B assay relative to control; conditions: NCI-H522, 48 h, read-out: Activity
HOP-92 = test: Growth inhibition of human HOP92 cells assessed as cell growth at 10^-5 M incubated for 48 hrs by sulforhodamine B assay relative to control; conditions: HOP-92, 48 h, read-out: Activity
CCRF-CEM = test: Growth inhibition of human CCRF-CEM cells assessed as cell growth at 10^-5 M incubated for 48 hrs by sulforhodamine B assay relative to control; conditions: read-out: Activity
SF-539 = test: Growth inhibition of human SF539 cells assessed as cell growth at 10^-5 M incubated for 48 hrs by sulforhodamine B assay relative to control; conditions: SF-539, 48 h, read-out: Activity
K562 = test: Growth inhibition of human K562 cells assessed as cell growth at 10^-5 M incubated for 48 hrs by sulforhodamine B assay relative to control; conditions: K562, 48 h, read-out: Activity
SK-OV-3 = test: Growth inhibition of human SKOV3 cells assessed as cell growth at 10^-5 M incubated for 48 hrs by sulforhodamine B assay relative to control; conditions: SK-OV-3, 48 h, read-out: Activity
LOX IMVI = test: Growth inhibition of human LOXIMVI cells assessed as cell growth at 10^-5 M incubated for 48 hrs by sulforhodamine B assay relative to control; conditions: read-out: Activity
RPMI-8226 = test: Growth inhibition of human RPMI8226 cells assessed as cell growth at 10^-5 M incubated for 48 hrs by sulforhodamine B assay relative to control; conditions: RPMI-8226, 48 h, read-out: Activity
NCI-H460 = test: Growth inhibition of human NCI-H460 cells assessed as cell growth at 10^-5 M incubated for 48 hrs by sulforhodamine B assay relative to control; conditions: NCI-H460, 48 h, read-out: Activity
MDA-MB-468 = test: Growth inhibition of human MDA-MB-468 cells assessed as cell growth at 10^-5 M incubated for 48 hrs by sulforhodamine B assay relative to control; conditions: MDA-MB-468, 48 h, read-out: Activity
MDA-MB-231 = test: Growth inhibition of human MDA-MB-231 cells assessed as cell growth at 10^-5 M incubated for 48 hrs by sulforhodamine B assay relative to control; conditions: MDA-MB-231, 48 h, read-out: Activity
SK-MEL-28 = test: Growth inhibition of human SK-MEL-28 cells assessed as cell growth at 10^-5 M incubated for 48 hrs by sulforhodamine B assay relative to control; conditions: SK-MEL-28, 48 h, read-out: Activity
DU-145 = test: Growth inhibition of human DU145 cells assessed as cell growth at 10^-5 M incubated for 48 hrs by sulforhodamine B assay relative to control; conditions: DU-145, 48 h, read-out: Activity
A549 = test: Growth inhibition of human A549/ATCC cells assessed as cell growth at 10^-5 M incubated for 48 hrs by sulforhodamine B assay relative to control; conditions: A549, 48 h, read-out: Activity
HCC 2998 = test: Growth inhibition of human HCC2998 cells assessed as cell growth at 10^-5 M incubated for 48 hrs by sulforhodamine B assay relative to control; conditions: HCC 2998, 48 h, read-out: Activity
M14 = test: Growth inhibition of human M14 cells assessed as cell growth at 10^-5 M incubated for 48 hrs by sulforhodamine B assay relative to control; conditions: M14, 48 h, read-out: Activity
786-0 = test: Growth inhibition of human 786-0 cells assessed as cell growth at 10^-5 M incubated for 48 hrs by sulforhodamine B assay relative to control; conditions: 786-0, 48 h, read-out: Activity
SF-295 = test: Growth inhibition of human SF295 cells assessed as cell growth at 10^-5 M incubated for 48 hrs by sulforhodamine B assay relative to control; conditions: SF-295, 48 h, read-out: Activity
MCF7 = test: Growth inhibition of human MCF7 cells assessed as cell growth at 10^-5 M incubated for 48 hrs by sulforhodamine B assay relative to control; conditions: MCF7, 48 h, read-out: Activity
A498 = test: Growth inhibition of human A498 cells assessed as cell growth at 10^-5 M incubated for 48 hrs by sulforhodamine B assay relative to control; conditions: A498, 48 h, read-out: Activity
NCI-H322M = test: Growth inhibition of human NCI-H322M cells assessed as cell growth at 10^-5 M incubated for 48 hrs by sulforhodamine B assay relative to control; conditions: read-out: Activity
COLO 205 = test: Growth inhibition of human COLO205 cells assessed as cell growth at 10^-5 M incubated for 48 hrs by sulforhodamine B assay relative to control; conditions: COLO 205, 48 h, read-out: Activity
UACC-62 = test: Growth inhibition of human UACC62 cells assessed as cell growth at 10^-5 M incubated for 48 hrs by sulforhodamine B assay relative to control; conditions: UACC-62, 48 h, read-out: Activity

SMILES | growth at 10 µM (CAKI-1) [%] | growth at 10 µM (OVCAR-8) [%] | growth at 10 µM (MDA-MB-435) [%] | growth at 10 µM (HOP-62) [%] | growth at 10 µM (SK-MEL-2) [%] | growth at 10 µM (OVCAR-4) [%] | growth at 10 µM (SN12C) [%] | growth at 10 µM (SR) [%] | growth at 10 µM (UO-31) [%] | growth at 10 µM (NCI-H522) [%] | growth at 10 µM (HOP-92) [%] | growth at 10 µM (CCRF-CEM) [%] | growth at 10 µM (SF-539) [%] | growth at 10 µM (SK-OV-3) [%] | growth at 10 µM (NCI-H460) [%] | growth at 10 µM (DU-145) [%] | growth at 10 µM (A549) [%] | growth at 10 µM (HCC 2998) [%] | growth at 10 µM (MCF7) [%] | growth at 10 µM (A498) [%] | other results
c1ccc2c3c([nH]c2c1)C(c1ccc(C2NCCc4c2[nH]c2ccccc42)cc1)NCC3 (racemic) | -51 | -41.5 |  |  |  |  |  |  |  |  |  |  |  |  |  |  |  |  |  |  | 
c1ccc2c(c1)[nH]c1c(-c3ccc(-c4nccc5c4[nH]c4ccccc45)cc3)nccc12 |  | 111 | 109 | 82.7 | 95.6 | 105 | 94.5 | 86 | 60.6 | 84.7 | 98.7 | 106 | 109 | 88 | 103 | 122 | 115 | 102 | 88.4 | 145 | growth at 10 µM (K562): 93.8%; growth at 10 µM (LOX IMVI): 89.4%; growth at 10 µM (RPMI-8226): 97.4%; growth at 10 µM (MDA-MB-468): 105%; growth at 10 µM (MDA-MB-231): 111%; growth at 10 µM (SK-MEL-28): 110%; growth at 10 µM (M14): 99.3%; growth at 10 µM (786-0): 94.8%; growth at 10 µM (SF-295): 105%; growth at 10 µM (NCI-H322M): 104%; growth at 10 µM (COLO 205): 92%; growth at 10 µM (UACC-62): 105%
c1ccc2[nH]c(-c3ccc(-c4nccc5c4[nH]c4ccccc45)cc3)nc2c1 |  | 4 to 16.5 |  | 2 to 86.1 |  |  | 60.9 |  |  |  |  |  |  | 22 to 104 | 42.9 | 19 to 67.4 | 21 to 45.7 | 19 to 74 | 17 to 30.4 | 58 to 68.7 | 
Cc1ccc(S(=O)(=O)N2CCc3c([nH]c4ccccc34)C2c2ccc(C=O)cc2)cc1 (stereo unspecified) | 73.5 | 98.2 | 93.4 | 94.3 | 81.6 | 85.8 | 87.7 | 97.2 | 66.7 | 60.3 | 102 | 106 | 90.2 | 88.5 | 93 | 101 | 92.8 | 102 | 92.4 | 84.6 | growth at 10 µM (K562): 106%; growth at 10 µM (LOX IMVI): 85.5%; growth at 10 µM (RPMI-8226): 99.1%; growth at 10 µM (MDA-MB-468): 102%; growth at 10 µM (MDA-MB-231): 73.4%; growth at 10 µM (SK-MEL-28): 86%; growth at 10 µM (M14): 85.8%; growth at 10 µM (786-0): 99.6%; growth at 10 µM (SF-295): 91.9%; growth at 10 µM (NCI-H322M): 87.7%; growth at 10 µM (COLO 205): 92.1%; growth at 10 µM (UACC-62): 65%
c1ccc2[nH]c(-c3ccc(C4NCCc5c4[nH]c4ccccc54)cc3)nc2c1 (stereo unspecified) | 77.5 | 99.2 | 101 | 89 | 96.8 | 97.9 | 93.8 | 119 | 73.5 | 83.5 | 82.2 | 103 | 102 | 95.6 | 104 | 113 | 82.9 | 107 | 96.7 | 104 | growth at 10 µM (K562): 88.2%; growth at 10 µM (LOX IMVI): 98%; growth at 10 µM (RPMI-8226): 97.3%; growth at 10 µM (MDA-MB-468): 94.7%; growth at 10 µM (MDA-MB-231): 92.2%; growth at 10 µM (SK-MEL-28): 102%; growth at 10 µM (M14): 96.6%; growth at 10 µM (786-0): 95.9%; growth at 10 µM (SF-295): 107%; growth at 10 µM (NCI-H322M): 92.8%; growth at 10 µM (COLO 205): 98.3%; growth at 10 µM (UACC-62): 86.3%
Cc1n[nH]c2c1C(c1ccc(C3NCCc4c3[nH]c3ccccc43)cc1)C(C#N)=C(N)O2 (stereo unspecified) | 63.2 | 104 | 96.3 | 83 | 86 | 85.7 | 87 | 113 | 53.9 | 81.8 | 88.8 | 83.7 | 92 | 92 | 91.8 | 105 | 84.9 | 105 | 78.8 | 67.1 | growth at 10 µM (K562): 74.3%; growth at 10 µM (LOX IMVI): 80.6%; growth at 10 µM (RPMI-8226): 72.1%; growth at 10 µM (MDA-MB-468): 92.7%; growth at 10 µM (MDA-MB-231): 77.6%; growth at 10 µM (SK-MEL-28): 97.1%; growth at 10 µM (M14): 86.7%; growth at 10 µM (786-0): 97.4%; growth at 10 µM (SF-295): 86.9%; growth at 10 µM (NCI-H322M): 97.7%; growth at 10 µM (COLO 205): 92.4%; growth at 10 µM (UACC-62): 57.8%
Cc1ccc(S(=O)(=O)N2CCc3c([nH]c4ccccc34)C2c2ccc(-c3nc4ccccc4[nH]3)cc2)cc1 (stereo unspecified) | 73.5 | 98.2 | 93.4 | 94.3 | 81.6 | 85.8 | 87.7 | 97.2 | 66.7 | 60.3 | 102 | 106 | 90.2 | 88.5 | 93 | 101 | 92.8 | 102 | 92.4 | 84.6 | growth at 10 µM (K562): 106%; growth at 10 µM (LOX IMVI): 85.5%; growth at 10 µM (RPMI-8226): 99.1%; growth at 10 µM (MDA-MB-468): 102%; growth at 10 µM (MDA-MB-231): 73.4%; growth at 10 µM (SK-MEL-28): 86%; growth at 10 µM (M14): 85.8%; growth at 10 µM (786-0): 99.6%; growth at 10 µM (SF-295): 91.9%; growth at 10 µM (NCI-H322M): 87.7%; growth at 10 µM (COLO 205): 92.1%; growth at 10 µM (UACC-62): 65%
